Laboratory results reported in US20240376094A2, “SELECTIVE BCL-XL PROTAC COMPOUNDS AND METHODS OF USE” (Les Laboratoires Servier, priority 2021, published 2024).

Columns and labels:
Assay type in all cases: cell-based
[1] = test system: MOLT-4 cells; assay: MOLT-4 cell viability, MTT assay; settings: Homo sapiens, MOLT-4, 48 h
Text: The MTT colorimetric assay is based on the mitochondrial reduction of tetrazolium salt by living cells. The viable cell number is proportional to the production of formazan salts, which can be read spectrophotometrically at 540 nm. The CTG luminescent assay (CellTiter GLO, Promega) is based on a reagent which lyses cells and measures total adenosine triphosphate (ATP) content. The viable cell number is proportional to the production of ATP.
MOLT-4 cells were purchased from ATCC and cultivated in RPMI 1640 supplemented with 10% heat inactivated fetal bovine serum, penicillin (100 IU/mi), streptomycin (100 μg/ml) and L-glutamine (2 mM). Cells were cultured at 37° C. in a humidified atmosphere containing 5% […].
For MTT assay, cells were seeded in 96 microwell plates (150 μL per well) and exposed to the compounds for 48 h (3.16 fold serially diluted; 9 concentrations each, triplicates). At the end of incubation time, 15 μL of MTT solution (5 mg/ml) were added per well and the cells were incubated for another 4 h. Then, 100 μL of 10% Sodium Dodecyl Sulfate (SDS)/HCl 10 mM were added per well and the plate was incubated overnight, before measurement of optical density at 540 nm.
IC50, were calculated using standard four-parametric curve fitting. IC50 is defined as the compound concentration at which the MTT or CTG signal is reduced to 50% of that measured for the control. Results shown in Table 14 represent the mean of at least 2 independent experiments.

[2] = test system: MOLT-4 cells; assay: MOLT-4 cell viability, CTG assay; settings: Homo sapiens, MOLT-4, 48 h
Outline: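 Viability read as total ATP luminescence (CTG) after 48 h compound treatment, 11 points at 5-fold spacing in triplicate, cells in RPMI 1640/10% FBS. IC50 is the concentration halving signal relative to control, four-parameter fit, averaged over at least 2 experiments.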

[3] = target: T1, Bcl-xL (Homo sapiens, UniProt Q07817); assay: HCT116 Bcl-xL degradation, capillary-based immunoassay (WES); settings: for DC50: HCT116, 24 h, 9-point serial dilution; for remaining activity at 0.01 µM / remaining activity at 0.1 µM: HCT-116, 24 h, % of untreated cells; for remaining activity at 0.01 µM: HCT116, 10 nM; for remaining activity at 0.1 µM: HCT116, 100 nM
T1 construct: Measured levels of Bcl-xL protein of HCT116 cells treated with the tested compounds; host or cells: HCT116
T1 sequence (Q07817 whole entry): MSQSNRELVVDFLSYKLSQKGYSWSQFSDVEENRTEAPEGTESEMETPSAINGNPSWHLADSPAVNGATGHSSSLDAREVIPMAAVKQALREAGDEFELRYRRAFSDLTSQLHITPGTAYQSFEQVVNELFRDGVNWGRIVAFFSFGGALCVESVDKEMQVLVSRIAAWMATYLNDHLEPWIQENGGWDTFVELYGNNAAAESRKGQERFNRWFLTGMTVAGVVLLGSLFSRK
Outline: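 Bcl-xL protein level by capillary WES immunoassay in HCT116 lysates, as % of untreated after cofilin normalization. Compound exposure was 24 h at 10 and 100 nM and/or a 9-point series, in quadruplicate. Four-parameter fitting gave the DC50.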

| IC50 [1] | IC50 [2] | DC50 [3] | remaining activity at 0.01 µM [3] | remaining activity at 0.1 µM [3] | SMILES |
| --- | --- | --- | --- | --- | --- |
| 5.21 nM | 12.9 nM | 10.5 nM | 61% | 41% | Cc1c(Nc2nc3ccccc3s2)nnc2c1CCCN2c1ccc(-c2cnn(CC34CC5(C)CC(C)(C3)CC(OCCN(C)CCOCCNc3cccc6c3C(=O)N(C3CCC(=O)NC3=O)C6=O)(C5)C4)c2C)c(C(=O)O)n1 (stereo not drawn) [Example 9, 6-[3-(1,3-benzothiazol-2-ylamino)-4-methyl-6,7-dihydro-5H-pyrido[2,3-c]pyridazin-8-yl]-3-[1-[[3-[2-[2-[2-[[2-(2,6-dioxo-3-piperidyl)-1,3-dioxo-isoindolin-4-yl]amino]ethoxy]ethyl-methyl-amino]ethoxy]-5,7-dimethyl-1-adamantyl]methyl]-5-methyl-pyrazol-4-yl]pyridine-2-carboxylic acid] |
| 4.29 nM | 20.3 nM | – | 83% | 60% | Cc1c(Nc2nc3ccccc3s2)nnc2c1CCCN2c1ccc(-c2cnn(CC34CC5(C)CC(C)(C3)CC(OCCN(C)CCOCCOCCOCCNc3cccc6c3C(=O)N(C3CCC(=O)NC3=O)C6=O)(C5)C4)c2C)c(C(=O)O)n1 (stereo not drawn) [Example 11, 6-[3-(1,3-benzothiazol-2-ylamino)-4-methyl-6,7-dihydro-5H-pyrido[2,3-c]pyridazin-8-yl]-3-[1-[[3-[2-[2-[2-[2-[2-[[2-(2,6-dioxo-3-piperidyl)-1,3-dioxo-isoindolin-4-yl]amino]ethoxy]ethoxy]ethoxy]ethyl-methyl-amino]ethoxy]-5,7-dimethyl-1-adamantyl]methyl]-5-methyl-pyrazol-4-yl]pyridine-2-carboxylic acid] |
| 9.49 nM | 19.9 nM | – | 69% | 69% | Cc1c(Nc2nc3ccccc3s2)nnc2c1CCCN2c1ccc(-c2cnn(CC34CC5(C)CC(C)(C3)CC(OCCN(C)CCOCCOCCNc3cccc6c3C(=O)N(C3CCC(=O)NC3=O)C6=O)(C5)C4)c2C)c(C(=O)O)n1 (stereo not drawn) [Example 12, 6-[3-(1,3-benzothiazol-2-ylamino)-4-methyl-6,7-dihydro-5H-pyrido[2,3-c]pyridazin-8-yl]-3-[1-[[3-[2-[2-[2-[2-[[2-(2,6-dioxo-3-piperidyl)-1,3-dioxo-isoindolin-4-yl]amino]ethoxy]ethoxy]ethyl-methyl-amino]ethoxy]-5,7-dimethyl-1-adamantyl]methyl]-5-methyl-pyrazol-4-yl]pyridine-2-carboxylic acid] |
| 13.5 nM | 33.9 nM | – | 79% | 57% | Cc1c(Nc2nc3ccccc3s2)nnc2c1CCCN2c1ccc(-c2cnn(CC34CC5(C)CC(C)(C3)CC(OCCN(C)CCOCCOCCOCCOCCOCCNc3cccc6c3C(=O)N(C3CCC(=O)NC3=O)C6=O)(C5)C4)c2C)c(C(=O)O)n1 (stereo not drawn) [Example 13, 6-[3-(1,3-benzothiazol-2-ylamino)-4-methyl-6,7-dihydro-5H-pyrido[2,3-c]pyridazin-8-yl]-3-[1-[[3-[2-[2-[2-[2-[2-[2-[2-[[2-(2,6-dioxo-3-piperidyl)-1,3-dioxo-isoindolin-4-yl]amino]ethoxy]ethoxy]ethoxy]ethoxy]ethoxy]ethyl-methyl-amino]ethoxy]-5,7-dimethyl-1-adamantyl]methyl]-5-methyl-pyrazol-4-yl]pyridine-2-carboxylic acid] |
| 1.15 nM | 3.51 nM | – | 81% | 86% | Cc1c(Nc2nc3ccccc3s2)nnc2c1CCCN2c1ccc(-c2cnn(CC34CC5(C)CC(C)(C3)CC(OCCN(C)CCCCCCOc3ccc6c(c3)C(=O)N(C3CCC(=O)NC3=O)C6=O)(C5)C4)c2C)c(C(=O)O)n1 (stereo not drawn) [Example 14, 6-[3-(1,3-benzothiazol-2-ylamino)-4-methyl-6,7-dihydro-5H-pyrido[2,3-c]pyridazin-8-yl]-3-[1-[[3-[2-[6-[2-(2,6-dioxo-3-piperidyl)-1,3-dioxo-isoindolin-5-yl]oxyhexyl-methyl-amino]ethoxy]-5,7-dimethyl-1-adamantyl]methyl]-5-methyl-pyrazol-4-yl]pyridine-2-carboxylic acid] |
| 11.5 nM | 23.6 nM | – | 73% | 35% | Cc1ncsc1-c1ccc(CNC(=O)[C@@H]2C[C@@H](O)CN2C(=O)[C@@H](NC(=O)CCC(=O)N2CCN(CC#Cc3ccc(OCCCc4sc(N5CCCc6c5nnc(Nc5nc7ccccc7s5)c6C)nc4C(=O)O)c(F)c3)CC2)C(C)(C)C)cc1 [Example 21, 2-[3-(1,3-benzothiazol-2-ylamino)-4-methyl-6,7-dihydro-5H-pyrido[2,3-c]pyridazin-8-yl]-5-[3-[2-fluoro-4-[3-[4-[4-[[(1S)-1-[(2S,4R)-4-hydroxy-2-[[4-(4-methylthiazol-5-yl)phenyl]methylcarbamoyl]pyrrolidine-1-carbonyl]-2,2-dimethyl-propyl]amino]-4-oxo-butanoyl]piperazin-1-yl]prop-1-ynyl]phenoxy]propyl]thiazole-4-carboxylic acid] |
| 875 nM | 1630 nM | – | 64% | 67% | CNCC#Cc1ccc(OCCCc2sc(N(CCCc3cn(CCOCCOCCOCCOCCOCCC(=O)N[C@H](C(=O)N4C[C@H](O)C[C@H]4C(=O)NCc4ccc(-c5scnc5C)cc4)C(C)(C)C)nn3)c3cc(C)c(Nc4nc5ccccc5s4)nn3)nc2C(=O)O)c(F)c1 [Example 29, 2-[[6-(1,3-benzothiazol-2-ylamino)-5-methyl-pyridazin-3-yl]-[3-[1-[2-[2-[2-[2-[2-[3-[[(1S)-1-[(2S,4R)-4-hydroxy-2-[[4-(4-methylthiazol-5-yl)phenyl]methylcarbamoyl]pyrrolidine-1-carbonyl]-2,2-dimethyl-propyl]amino]-3-oxo-propoxy]ethoxy]ethoxy]ethoxy]ethoxy]ethyl]triazol-4-yl]propyl]amino]-5-[3-[2-fluoro-4-[3-(methylamino)prop-1-ynyl]phenoxy]propyl]thiazole-4-carboxylic acid] |
| 133 nM | 477 nM | – | 118% | 73% | CNCC#Cc1ccc(OCCCc2sc(N(CCCc3cn(CCCCCCCCNC(=O)COc4cccc5c4C(=O)N(C4CCC(=O)NC4=O)C5=O)nn3)c3cc(C)c(Nc4nc5ccccc5s4)nn3)nc2C(=O)O)c(F)c1 (stereo not drawn) [Example 30, 2-[[6-(1,3-benzothiazol-2-ylamino)-5-methyl-pyridazin-3-yl]-[3-[1-[8-[[2-[2-(2,6-dioxo-3-piperidyl)-1,3-dioxo-isoindolin-4-yl]oxyacetyl]amino]octyl]triazol-4-yl]propyl]amino]-5-[3-[2-fluoro-4-[3-(methylamino)prop-1-ynyl]phenoxy]propyl]thiazole-4-carboxylic acid] |
| 92.8 nM | 118 nM | 46.2 nM | 59% | 40% | Cc1cc(N(CCCCCn2cc(CCCCCCCNC(=O)COc3cccc4c3C(=O)N(C3CCC(=O)NC3=O)C4=O)nn2)c2ccc(-c3cnn(CC45CC6(C)CC(C)(C4)CC(OCCN(C)C)(C6)C5)c3C)c(C(=O)O)n2)nnc1Nc1nc2ccccc2s1 (stereo not drawn) [Example 64, 6-[[6-(1,3-benzothiazol-2-ylamino)-5-methyl-pyridazin-3-yl]-[5-[4-[7-[[2-[2-(2,6-dioxo-3-piperidyl)-1,3-dioxo-isoindolin-4-yl]oxyacetyl]amino]heptyl]triazol-1-yl]pentyl]amino]-3-[1-[[3-[2-(dimethylamino)ethoxy]-5,7-dimethyl-1-adamantyl]methyl]-5-methyl-pyrazol-4-yl]pyridine-2-carboxylic acid] |
| 156 nM | 140 nM | – | 90% | 78% | Cc1cc(N(CCCCCn2cc(COCCOCCNC(=O)COc3cccc4c3C(=O)N(C3CCC(=O)NC3=O)C4=O)nn2)c2ccc(-c3cnn(CC45CC6(C)CC(C)(C4)CC(OCCN(C)C)(C6)C5)c3C)c(C(=O)O)n2)nnc1Nc1nc2ccccc2s1 (stereo not drawn) [Example 65, 6-[[6-(1,3-benzothiazol-2-ylamino)-5-methyl-pyridazin-3-yl]-[5-[4-[2-[2-[[2-[2-(2,6-dioxo-3-piperidyl)-1,3-dioxo-isoindolin-4-yl]oxyacetyl]amino]ethoxy]ethoxymethyl]triazol-1-yl]pentyl]amino]-3-[1-[[3-[2-(dimethylamino)ethoxy]-5,7-dimethyl-1-adamantyl]methyl]-5-methyl-pyrazol-4-yl]pyridine-2-carboxylic acid] |
